According to patent US20260250250A1, “3-(SULPHONYL OR SULFONIMIDOYL)PROP-2-EN-1-YL]-2-OXO-1,2-DIHYDROPYRIDINE-3-CARBOXAMIDE DERIVATIVES” (Flinder Therapeutics B.V., priority 2022, published 2026):
pIC50: −log10 of the molar value. Counter-ions that a name gives are not always drawn.

Tests used:
[1] = target: T1, human E3 ubiquitin-protein ligase RNF31 (HOIP) (Homo sapiens, UniProt Q96EP0); test: Cell-free HTRF-based HOIP inhibition assay; format: biochemical
T1 sequence (Q96EP0 695-1072 limits assumed): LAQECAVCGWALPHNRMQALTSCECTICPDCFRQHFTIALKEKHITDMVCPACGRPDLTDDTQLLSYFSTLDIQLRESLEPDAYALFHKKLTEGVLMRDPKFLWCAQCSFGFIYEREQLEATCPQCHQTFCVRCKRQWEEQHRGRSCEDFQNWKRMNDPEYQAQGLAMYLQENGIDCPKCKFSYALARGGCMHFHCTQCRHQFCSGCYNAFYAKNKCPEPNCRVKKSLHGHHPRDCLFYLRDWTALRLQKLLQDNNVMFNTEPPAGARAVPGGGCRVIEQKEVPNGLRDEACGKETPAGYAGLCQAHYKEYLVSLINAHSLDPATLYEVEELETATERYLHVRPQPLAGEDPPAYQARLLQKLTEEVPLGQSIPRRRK
Experimental: This assay was performed in the following steps: • a) synthesis of recombinant fragment of human E3 ubiquitin-protein ligase RNF31 (HOIP), expressed with purity >90% in E. coli system (the protein was prepared as 1 mg/mL stock in a standard formulation); • b) incubation of the compounds in a typical concentration range: 100-0.005 μM, at a final DMSO conc. 1% with a mixture of HOIP and ubiquitin activating enzyme E1 at 25° C., for 1 h at 25° C.; • c) followed by addition of a ubiquitination solution including E2 and substrates (the reaction proceeds for 2.5 h at 25° C.); and • d) HTRF detection was performed using a PHERAstar FSX (BMG Labtech) plate reader (excitation at 337 nm, dual emissions at 665 and 620 nm).

[2] = tested on: NF-κB signaling pathway; test: Cell-based dual luciferase NF-κB reporter assay (HEK293 cells, TNF stimulated); conditions: Homo sapiens, HEK293
Experimental: Dual-luciferase reporter assay was designed to find inhibitors of HOIP affecting NF-κB signaling pathway. The assay was performed in HEK293 cells which were transfected with plasmids coding for Firefly and NanoLuc luciferases. The NanoLuc luciferase plasmid contains NF-κB response element which determines its expression.
The assay was run following standard dual-luciferase protocols. The assay consists of a few steps: • compounds were dispensed at a concentration range: 100-0.005 μM with a final DMSO concentration of 1% of final volume (25 μL); • cells were stimulated after 30 min with 2.5 ng/mL TNF; and • after 6 h Firefly and NanoLuc luciferase activities are determined according to the procedure described by the manufacturer of Nano-Glo Dual-Luciferase Reporter Assay System.

[3] = tested on: bladder carcinoma RT4 cell line; test: TNF-α-induced cytotoxicity assay (CellTiter-Glo viability); format: cell-based; conditions: Homo sapiens, RT-4, 72 h
Experimental: A viability assay, using bladder carcinoma RT4 cell line, was used for identifying the potential inhibitory effect of tested compounds on HOIP activity. The viability was determined by CellTiter-Glo Luminescent Cell Viability Assay (G7571, Promega) which measures the ability of generating a luminescent signal proportional to the amount of ATP present in living cells. The assay consists of a few steps: • a) the cells were routinely sub cultivated twice a week with standard complete growth medium composition; • b) cells were preparated for the assay by creating a cell suspension at the density of 0.05 mln cells/mL and dispensed into plates (ViewPlate-384, PerkinElmer) resulting in 1000 cells/well; • c) cells were stimulated with 1.25 ng/mL TNFα and with compounds and incubated for 72 h at 37° C. in the atmosphere with 5% CO2; and • d) for detection cytotoxicity was measured with CellTiter-Glo® Luminescent Cell Viability Assay based on the method described by the manufacturer.

O=C(NC/C=C/S(=O)(=O)c1ccccc1)c1cc2c([nH]c1=O)CCNC2 [Example 66, N-[(2E)-3-(benzenesulfonyl)prop-2-en-1-yl]-2-oxo-1,2,5,6,7,8-hexahydro-1,6-naphthyridine-3-carboxamide hydrochloride]
pIC50 [1]: ≥ 5.00
pIC50 [2]: ≥ 5.00
pIC50 [3]: ≥ 5.00

N=S(=O)(/C=C/CNC(=O)c1cc2c([nH]c1=O)CCCC2)c1ccc(Cl)cc1 (stereo not shown) [Example 131, N-[(2E)-3-[(4-chlorophenyl)(imino)oxo-λ^6-sulfanyl]prop-2-en-1-yl]-2-oxo-1,2,5,6,7,8-hexahydroquinoline-3-carboxamide]
pIC50 [1]: ≥ 7.00
pIC50 [2]: ≥ 6.00
pIC50 [3]: ≥ 6.00

O=C(NC/C=C/S(=O)(=O)c1ccccc1)c1cc2c([nH]c1=O)CCN(C(=O)OC1CC1)C2 [Example 78, cyclopropyl 3-{[(2E)-3-(benzenesulfonyl)prop-2-en-1-yl]carbamoyl}-2-oxo-1,2,5,6,7,8-hexahydro-1,6-naphthyridine-6-carboxylate]
pIC50 [1]: ≥ 6.00
pIC50 [2]: ≥ 6.00
pIC50 [3]: ≥ 5.00

O=C(NC/C=C/S(=O)(=O)c1ccccc1)c1cc2c([nH]c1=O)CCN(C(=O)CC1CC1)C2 [Example 117, N-[(2E)-3-(benzenesulfonyl)prop-2-en-1-yl]-6-(2-cyclopropylacetyl)-2-oxo-1,2,5,6,7,8-hexahydro-1,6-naphthyridine-3-carboxamide]
pIC50 [1]: ≥ 6.00
pIC50 [2]: ≥ 4.00
pIC50 [3]: ≥ 4.00

N=S(=O)(/C=C/CNC(=O)c1cc2c([nH]c1=O)CCN(C(=O)OCCF)C2)c1ccccc1 (stereo not shown) [Example 181, 2-fluoroethyl 3-{[(2E)-3-[imino(oxo)phenyl-λ^6-sulfanyl]prop-2-en-1-yl]carbamoyl}-2-oxo-1,2,5,6,7,8-hexahydro-1,6-naphthyridine-6-carboxylate]
pIC50 [1]: ≥ 6.00
pIC50 [2]: ≥ 4.00
pIC50 [3]: ≥ 5.00

COc1ccc(S(=N)(=O)/C=C/CNC(=O)c2cc3c([nH]c2=O)CCC(C)C3)cc1F (stereo not shown) [Example 142, N-[(2E)-3-[(3-fluoro-4-methoxyphenyl)(imino)oxo-λ^6-sulfanyl]prop-2-en-1-yl]-6-methyl-2-oxo-1,2,5,6,7,8-hexahydroquinoline-3-carboxamide]
pIC50 [1]: ≥ 6.00
pIC50 [2]: ≥ 6.00
pIC50 [3]: ≥ 6.00

O=C(NC/C=C/S(=O)(=O)c1ccc(Cl)cc1)c1cc2c([nH]c1=O)CCN(C(=O)NC1CC1)C2 [Example 101, N3-[(2E)-3-(4-chlorobenzenesulfonyl)prop-2-en-1-yl]-N6-cyclopropyl-2-oxo-1,2,5,6,7,8-hexahydro-1,6-naphthyridine-3,6-dicarboxamide]
pIC50 [1]: ≥ 6.00
pIC50 [2]: ≥ 4.00
pIC50 [3]: ≥ 4.00

COc1ccc(S(=N)(=O)/C=C/CNC(=O)c2cc3c([nH]c2=O)CCC3)cc1F (stereo not shown) [Example 151, N-[(2E)-3-[(3-fluoro-4-methoxyphenyl)(imino)oxo-λ^6-sulfanyl]prop-2-en-1-yl]-2-oxo-1H,2H,5H,6H,7H-cyclopenta[b]pyridine-3-carboxamide]
pIC50 [1]: ≥ 6.00
pIC50 [2]: ≥ 5.00
pIC50 [3]: ≥ 6.00

CC(C)COC(=O)N1CCc2[nH]c(=O)c(C(=O)NC/C=C/S(=O)(=O)c3ccccc3)cc2C1 [Example 119, 2-methylpropyl 3-{[(2E)-3-(benzenesulfonyl)prop-2-en-1-yl]carbamoyl}-2-oxo-1,2,5,6,7,8-hexahydro-1,6-naphthyridine-6-carboxylate]
pIC50 [1]: ≥ 7.00
pIC50 [2]: ≥ 6.00
pIC50 [3]: ≥ 6.00

O=C(NC/C=C/S(=O)(=O)c1ccccc1)c1cc2c([nH]c1=O)CCN(C(=O)OCCN1CCCCC1=O)C2 [Example 83, 2-(2-Oxopiperidin-1-yl)ethyl 3-{[(2E)-3-(benzenesulfonyl)prop-2-en-1-yl]carbamoyl}-2-oxo-1,2,5,6,7,8-hexahydro-1,6-naphthyridine-6-carboxylate]
pIC50 [1]: ≥ 6.00
pIC50 [2]: ≥ 4.00
pIC50 [3]: ≥ 4.00

O=C(NC/C=C/S(=O)(=O)c1ccccc1)c1cc2c([nH]c1=O)CCN(C(=O)OCCc1ccc(Cl)cc1)C2 [Example 122, 2-(4-chlorophenyl)ethyl 3-{[(2E)-3-(benzenesulfonyl)prop-2-en-1-yl]carbamoyl}-2-oxo-1,2,5,6,7,8-hexahydro-1,6-naphthyridine-6-carboxylate]
pIC50 [1]: ≥ 6.00
pIC50 [2]: ≥ 6.00
pIC50 [3]: ≥ 6.00

COc1ccc(S(=N)(=O)/C=C/CNC(=O)c2cc3c([nH]c2=O)CCOC3)cc1F (stereo not shown) [Example 145, N-[(2E)-3-[(3-fluoro-4-methoxyphenyl)(imino)oxo-λ^6-sulfanyl]prop-2-en-1-yl]-2-oxo-1H,2H,5H,7H,8H-pyrano[4,3-b]pyridine-3-carboxamide]
pIC50 [1]: ≥ 6.00
pIC50 [2]: ≥ 4.00
pIC50 [3]: ≥ 5.00

O=C(NC/C=C/S(=O)(=O)c1ccc(Cl)cc1)c1cc2c([nH]c1=O)CCN(C(=O)OCCF)C2 [Example 93, 2-fluoroethyl 3-{[(2E)-3-(4-chlorobenzenesulfonyl)prop-2-en-1-yl]carbamoyl}-2-oxo-1,2,5,6,7,8-hexahydro-1,6-naphthyridine-6-carboxylate]
pIC50 [1]: ≥ 7.00
pIC50 [2]: ≥ 6.00
pIC50 [3]: ≥ 6.00

N=S(=O)(/C=C/CNC(=O)c1cc2c([nH]c1=O)CCCC2)c1cccc(Cl)c1 (stereo not shown) [Example 134, N-[(2E)-3-[(3-chlorophenyl)(imino)oxo-λ^6-sulfanyl]prop-2-en-1-yl]-2-oxo-1,2,5,6,7,8-hexahydroquinoline-3-carboxamide]
pIC50 [1]: ≥ 6.00
pIC50 [2]: ≥ 6.00
pIC50 [3]: ≥ 6.00

COc1ccc(S(=N)(=O)/C=C/CNC(=O)c2cc3c([nH]c2=O)CCCCC3)cc1F (stereo not shown) [Example 150, N-[(2E)-3-[(3-fluoro-4-methoxyphenyl)(imino)oxo-λ^6-sulfanyl]prop-2-en-1-yl]-2-oxo-1H,2H,5H,6H,7H,8H,9H-cyclohepta[b]pyridine-3-carboxamide]
pIC50 [1]: ≥ 6.00
pIC50 [2]: ≥ 5.00
pIC50 [3]: ≥ 6.00

O=C(NC/C=C/S(=O)(=O)c1ccc(Cl)cc1)c1cc2c([nH]c1=O)CCN(C(=O)OCC(F)F)C2 [Example 96, 2,2-difluoroethyl 3-{[(2E)-3-(4-chlorobenzenesulfonyl)prop-2-en-1-yl]carbamoyl}-2-oxo-1,2,5,6,7,8-hexahydro-1,6-naphthyridine-6-carboxylate]
pIC50 [1]: ≥ 6.00
pIC50 [2]: ≥ 6.00
pIC50 [3]: ≥ 5.00

O=C(NC/C=C/S(=O)(=O)c1ccc(Cl)cc1Cl)c1cc2c([nH]c1=O)CCCC2 [Example 32, N-[(2E)-3-(2,4-dichlorobenzenesulfonyl)prop-2-en-1-yl]-2-oxo-1,2,5,6,7,8-hexahydroquinoline-3-carboxamide]
pIC50 [1]: ≥ 7.00
pIC50 [2]: ≥ 6.00
pIC50 [3]: ≥ 6.00

O=C(NC/C=C/S(=O)(=O)c1ccccc1F)c1cc2c([nH]c1=O)CCCC2 [Example 24, N-[(2E)-3-(2-fluorobenzenesulfonyl)prop-2-en-1-yl]-2-oxo-1,2,5,6,7,8-hexahydroquinoline-3-carboxamide]
pIC50 [1]: ≥ 7.00
pIC50 [2]: ≥ 6.00
pIC50 [3]: ≥ 6.00

CC(C)(C)c1ccc(S(=N)(=O)/C=C/CNC(=O)c2cc3c([nH]c2=O)CCCC3)cc1 (stereo not shown) [Example 61, N-[(2E)-3-[(4-tert-butylphenyl)(imino)oxo-λ^6-sulfanyl]prop-2-en-1-yl]-2-oxo-1,2,5,6,7,8-hexahydroquinoline-3-carboxamide]
pIC50 [2]: ≥ 6.00
pIC50 [3]: ≥ 6.00

CCOc1ccc(S(=N)(=O)/C=C/CNC(=O)c2cc3c([nH]c2=O)CCCC3)cc1 (stereo not shown) [Example 62, N-[(2E)-3-[(4-ethoxyphenyl)(imino)oxo-λ^6-sulfanyl]prop-2-en-1-yl]-2-oxo-1,2,5,6,7,8-hexahydroquinoline-3-carboxamide]
pIC50 [2]: ≥ 6.00
pIC50 [3]: ≥ 6.00
